Experimental data reported in patent US20260069590A1, “METHOD FOR TREATING NONTUBERCULOUS MYCOBACTERIAL INFECTION” (priority 2022, published 2026).

What was measured:
M. abscessus strain 103 = experiment: Mouse model of M. abscessus in the SCID mouse; format: in vivo; conditions: treatment end
M. avium = experiment: Minimum inhibitory concentration, microbroth dilution, presence and absence of CF sputum; format: cell-based; conditions: Mycobacterium avium, M. avium B18101968; + SP (10% CF sputum)
Procedure: Minimum inhibitory concentration (MIC) testing was performed by microbroth dilution method using Mueller Hinton (MH) broth (Cation Adjusted) to the calcium and magnesium ion concentration recommended in the CLSI standard M7-A7 (Becton Dickinson). MIC testing also was performed by microbroth dilution method using 7H9 broth (Sigma-Aldrich). […] M. abscessus was grown on 7H11 agar plates (Sigma-Aldrich) for 3 days at 35-37° C. in ambient air (depending on bacterial strain), and M. avium was grown on agar 7H11 plates (Sigma-Aldrich) for 21-30 days at 37° C. in ambient air.
The colony forming units (CFUs) are taken from the agar plates and placed in either MH or 7H9 broth with 0.05% tween-80 and grown at 35-37° C. in ambient air until the optical density (OD) absorbance taken after 3 days (M. abscessus) or 12 (M. avium) of growth is an (OD) 0.08-0.1 (0.5 McFarland Standard). The bacterial cell suspensions are then confirmed by preparing them in saline, matching the (OD) 0.08-0.1 (0.5 McFarland Standard). […]
Minimum inhibitory concentrations assays were performed as described above. […] The MIC of the Composition of Example 1 was measured following the same CLSI protocol as described above, in the presence and absence of cystic fibrosis patient sputum. […]

[1] = tested on: M. avium strain 2285 rough; experiment: Acute mouse model of M. avium infection in the Beige mouse; format: in vivo; conditions: treatment end, Oral 20 mg/kg every other day from day 7
M. avium 2285 rough = experiment: Chronic Beige mouse model; format: in vivo, Beige mice; conditions: Day 57, Oral 20 mg/kg, 14 treatments every other day from Day 28
[2] = Plasma toxicokinetics, 28-day inhalation study in dogs; conditions: Beagle, dog, in vivo, inhaled or intranasal
Procedure: The animals were studied for a period of 84 days.
All GLP canine study activities were performed by Lovelace Biomedical Research Institute (LBRI) under an IACUC approved protocol. Five groups of Beagle dogs were divided into study groups (Table 1) and exposed once daily by face-mask inhalation to filtered air (Group 1), vehicle (Group 2-0.5% polysorbate in saline), or CIS (Groups 3-5) for 28 consecutive days. The Low, Mid, and High doses (Groups 3, 4, and 5) were exposed to an average aerosol concentration of 0.209 mg/L for 30 min, 60 min and 120 min, respectively. The 28-day exposure period was followed by 28- and 56-day no exposure recovery periods (Recovery Study, Study Day (SD) 56 and 84 respectively). Blood was collected for toxicokinetic (TK) analysis from animals after both the first day of dose administration (Day 1; (0.5 hours (±5 minutes), 6 hours (±30 minutes), 12 hours (±30 minutes), 24 hours (±1 hour)), the last day of dose administration (SD28), and at […], SD56 and SD84, as indicated in Table 1. Main Study animals were necropsied one day post final exposure (SD29), while two male and two female Recovery Study animals were each necropsied on SD56 and SD84.
Aerosolized CIS was delivered to each dog by way of a 6-port aerosol exposure system using three Micro Mist compressed air jet nebulizers. (Supplementary Figure S1) All animals were conditioned to the face masks and restraint system before study. The exposure system and aerosol characteristics of the API and vehicle, including target aerosol concentration, concentration homogeneity, concentration repeatability, and aerosol size distribution were confirmed by LBRI prior to study. Dosing for each dog was measured for every dose delivered throughout study and calculated against individual dog weights.
Blood samples were immediately processed or held on wet ice for no more than 2 hours (hr) before being processed to plasma by centrifugation (1300 g, 2-8° C., ≥10 minutes), with plasma separated into appropriately labeled vials and stored frozen (−70 to −90° C.) until CFZ analysis.
Main study animals (3M/3F per timepoint) had blood samples collected at the following timepoints post-exposure on SD1 and SD28: 0.5 hr (±5 minutes), 6.0 hr (±30 minutes), 12 hr (±30 minutes), and 24 hr (±1 hr). Recovery animals (2M/2F per Recovery timepoint) from each group had blood collected on SD42, and prior to euthanasia on SD56 or SD84. The sample size for each group, sex, and timepoint is described in Table 1. Actual collection times were documented, and all animals in this study underwent scheduled sampling at their respective timepoints.
Retention time and peak area were determined by Analyst® Data Acquisition/Processing Software (Version 1.6.3). Analyte concentrations were obtained from a calibration curve constructed by plotting the peak area versus the nominal concentration using Analyst.
Clinical observations were descriptive while numerical evaluations (means and standard deviations) were used for all other parameters where possible. Toxicokinetic parameters were estimated for blood plasma using Phoenix WinNonlin version 8.3 software (Certara L.P.) with a non-compartmental analysis (NCA) consistent with aerosol administration (extravascular model) on each subject at each timepoint. NCA was only performed if there were quantifiable concentrations at two consecutive timepoints. Concentration values below the lower limit of quantitation of 2.00 ng/ml for plasma were labeled as below quantitative limits (BQL). These BQL values were treated as missing and excluded from calculation of descriptive statistics and toxicokinetic analysis.
Concentrations were used with full precision to three significant figures as received from bioanalytical data.

[3] = Lung and other tissue toxicokinetics, 28-day inhalation study in dogs; conditions: Beagle, in vivo, inhaled or intranasal, dog lung, SD29 to SD84, read-out: lung terminal elimination half-life (converted)
From the text: Clofazimine was extracted by protein precipitation from dog plasma.

clinical = conditions: human, plasma, inhaled
Procedure: (§2) For placebo, subjects were treated with a nebulized sterile, isotonic saline solution consisting of 0.9% wt/v sodium chloride. […] The doses were administered by inhalation with a Pari e-Flow nebulizer system to investigate tolerability and pharmacokinetics (PK) in healthy human subjects. The subjects were monitored for any life-threatening or severe adverse events and samples of their blood were taken for analysis.
(§3) Participants resided at the clinical research unit until day 5 post-dose, during which time they were evaluated for safety and samples were collected for PK assessment. Participants returned on days 8 and 15 for additional safety assessments and sample collection. […] Participants resided at the clinical research unit until day 8 post-dose, during which time they were evaluated for safety and samples were collected for PK assessment. Participants returned on days 15 and 36 for additional safety assessments and sample collection.

[4] = BCS class II drug; cited from earlier work
[5] = cited from earlier work
[6] = Pharmacokinetics of clofazimine delivered by nebulization in healthy subjects
Procedure: as §2, §3

[7] = Safety and tolerability of clofazimine delivered by nebulization in healthy subjects; conditions: inhaled, nebulized
Procedure: as §2, §3

A549 = experiment: Effects of surfactants on cell viability, MTT assay; format: cell-based, human; conditions: 1% in HBSS, positive control
Procedure: (§1) Effects of surfactants on cell viability study: The effects of a surfactant such as polysorbate 80 (PS 80) containing various fatty acids components were used in this study to determine their effect on cell viability in the lungs upon administration of composition for lung delivery. In vitro experiments were carried out using three different human cell lines, i.e., human cell lines A549 (type II pulmonary epithelial cell derived), hAELVi, (human alveolar epithelial cell) and Calu-3 (lung adenocarcinoma cell). The cell lines were obtained from ATCC (Bethesda, MD) and maintained as recommended by the provider and seeded and incubated for the 24 hour test in 96-well plates containing 4×10^4/well in RPMI 1640 medium (Gibco). For testing, the medium as aspirated, the cells were washed twice with Hank's balanced Salt Solution (HBSS) at pH 7.4 and a 0.2 ml sample solution containing a surfactant was added to the cells. HBSS was used as negative control as well as HBSS containing 1% TritonX-100 as positive control. Surfactants under study were two, a super-refined grade PS 80 comprising a mixture of various fatty acid esters of about 70% to 85% total content being oleic acid and having other components including, mystiric, palmitic, palmitoleic, stearic, linoleic and linolenic acid esters. This super-refined PS 80 (Tween® 80, A) manufactured by Mallinckrodt Baker or Merck, and a second PS 80 (B, NOF Corporation) comprising an oleic acid component of about 99% were tested. In the experiments to determine the in vitro IC50 values, the cell lines were exposed to equal concentrations of the two surfactants in HBSS solution at the same concentrations and several dilutions of the test compounds after incubation for 4 hours at 37° C. with shaking, washed with HBSS. Cell viability was assessed based on the absorbance measurements at 550 nm obtained using the MTT assay as described in Metz et al., J. ALTEX, Jan. 29, 2020: V.2 doi:10.14573/altex.1910231. FIGS. 8 and 9, and Table 16 illustrate data obtained from the experiments.

Calu-3 = experiment: as above; format: cell-based, human; conditions: 1% in HBSS, positive control
Procedure: as §1

hAELVi = experiment: as above; format: cell-based, human; conditions: 1% in HBSS, positive control
Procedure: as §1

For `NCC[C@H](O)C(=O)N[C@@H]1C[C@H](N)[C@@H](O[C@H]2O[C@H](CN)[C@@H](O)[C@H](O)[C@H]2O)[C@H](O)[C@H]1O[C@H]1O[C@H](CO)[C@@H](O)[C@H](N)[C@H]1O` [Amikacin, amikacin], the “Liver Log10 CFU ± SEM” value (M. abscessus strain 103; SQ 150 mg/kg every other day) was 3.07 ± 0.10 Log10 CFU, the “Lung Log10 CFU ± SEM” value (M. abscessus strain 103; SQ 150 mg/kg every other day) was 3.94 ± 0.11 Log10 CFU and the “Spleen Log10 CFU ± SEM” value (M. abscessus strain 103; SQ 150 mg/kg every other day) was 4.37 ± 0.31 Log10 CFU.

With `CC(C)/N=c1\cc2n(-c3ccc(Cl)cc3)c3ccccc3nc-2cc1Nc1ccc(Cl)cc1` [Clofazimine, N,5-bis(4-chlorophenyl)-3-propan-2-yliminophenazin-2-amine] the MIC (M. avium) was greater than 2 µg/mL, the “Liver Log10 CFU ± SEM” value (M. abscessus strain 103; Oral 20 mg/kg every other day) was 4.78 ± 0.18 Log10 CFU and the “Lung Log10 CFU ± SEM” value (M. abscessus strain 103; Oral 20 mg/kg every other day) was 3.33 ± 0.17 Log10 CFU. The “Spleen Log10 CFU ± SEM” value (M. abscessus strain 103; Oral 20 mg/kg every other day) was 3.79 ± 0.10 Log10 CFU, the “Liver Log10 CFU ± SEM” value [1] was 3.01 ± 0.03 Log10 CFU and the “Lung Log10 CFU ± SEM” value [1] was 3.95 ± 0.03 Log10 CFU. For the same molecule, the “Spleen Log10 CFU ± SEM” value [1] was 3.14 ± 0.03 Log10 CFU, the “Liver Log10 CFU ± SEM” value (M. avium 2285 rough) was 4.07 ± 0.04 Log10 CFU and the “Lung Log10 CFU ± SEM” value (M. avium 2285 rough) was 5.94 ± 0.12 Log10 CFU. For the same molecule, the “Spleen Log10 CFU ± SEM” value (M. avium 2285 rough) was 3.08 ± 0.04 Log10 CFU, the half-life ([2]; female, 0.74 mg/kg) was 8.99 h and the half-life ([2]; female, 1.48 mg/kg) was 9.43 h. It also gave a half-life ([2]; female, 2.52 mg/kg) of 7.23 h, a half-life ([2]; male, 0.68 mg/kg) of 7.19 h and a half-life ([2]; male, 1.36 mg/kg) of 8.95 h. The half-life ([2]; male, 2.72 mg/kg) was 7.89 h, the half-life ([3]; female, 2.95 mg/kg, Low dose females) was 262 h and the half-life ([3]; male, 5.45 mg/kg, Mid dose males) was 239 h. For the same molecule, the half-life ([3]; male, 10.87 mg/kg, High dose males) was 475 h, the half-life (clinical) was 290 h and the solubility in water [4] was “practically insoluble in water”. For the same molecule, the “absorption in humans after oral administration” value [5] was 45-62%, the “time to peak plasma concentrations” value ([6]; repeated administration, inhaled 30 or 90 mg daily for seven days) was 2 to 12 h and the “time to peak plasma concentrations” value ([6]; single administration, inhaled 30, 60, 90 mg) was 4 to 8 h. The “increase in AUC0-24” value ([6]; single administration, dose increase of 1.5-fold) was 1.6 fold, the “increase in AUC0-24” value ([6]; single administration, dose increase of 2-fold) was 2.3 fold and the “Columbia Suicide Severity Rating Scale (C-SSRS)” value [7] was “no suicidal ideation or behavior”. The ECG results [7] was “no abnormal, clinically significant electrocardiogram” and the skin discoloration [7] was “no evidence of skin discoloration”.

In the case of Triton X-100, the cell viability (A549) is reported as “loss all viability”, the cell viability (Calu-3) is reported as “loss all viability” and the cell viability (hAELVi) is reported as “loss all viability”.
